Holding throughout (format): cell-based, human
One assay has as its system Nalm-6 cells. In words: Cell viability assay using PI staining and forward scatter, Nalm-6. To be noted: for viability (percent viable cells): jasplakinolide 3 μgs/ml or cytochalasin 5 μgs/ml 2 hr at 37° C; for cell viability: caspase inhibitors 10 μM 2 hr at 37° C before treatment with mAb 216. As for the experimental part:
The integrity of the plasma membrane was assessed by the ability of cells to exclude propidium iodide (PI, Sigma, St. Louis, Mo.). The level of PI incorporation was quantitated by flow cytometry on FACScan (Becton-Dickinson, San Jose Calif.) interfaced with VersatermPro and FlowJo software at Stanford's FACS facility. PI-negative cells with normal size as measured by forward scatter signals were considered live cells.
Briefly, cells were treated as specified in each experiment and resuspended in PBS with 3% FCS and 10 μgs/ml of PI. In experiments where toxicity was evaluated in Ca-free medium, cells were resuspended in appropriate media with or without calcium to which 10 μgs/ml PI was added. Since previous studies have shown that mAb 216-mediated toxicity is remarkably […] at lower temperatures (Bhat, N. M., et al. (1996) Clin. Exp. Immunol 105, 183), precautions were taken to keep all media and cells at 37° C. and the centrifuge at room temperature.
Cytochalasin was obtained from Sigma and jasplakinolide was obtained from Molecular Probes (Eugene, Oreg.). Caspase inhibitors, Ac-IETD-CHO and Ac-DEVD-CHO were obtained from PharMingen (San Diego, Calif.). Nalm-6 cells (1×10^6 cells/ml) were treated with jasplakinolide (3 μgs/ml), cytochalasin (5 μgs/ml), or caspase inhibitors (10 μM) for 2 hr at 37° C. before treatment with mAb 216. Control samples with equivalent amounts of DMSO were set in parallel. Cells were then exposed to 25 μg of mAb 216 or control Ab and analyzed by flow cytometry.
Since exocytosis of lysosomes is known to be a calcium dependent phenomenon (Miyake, K., and P. L. McNeil (1995) J. Cell Biol. 131, 1737; Bi, G. Q., et al. (1995) J. Cell Biol. 131, 1747), membrane wounding by mAb 216 and repair of the wound was tested in calcium free and normal calcium conditions. The cell viability of Nalm-6 cells when treated with two VH4-34 encoded mAbs, mAb 216 at 50, 25 and 12.5 ng/ml concentrations, and Y2K at 50 ng/ml, was tested in the presence of media with and without calcium.
Brefeldin-A was obtained from Sigma. Nalm-6 cells (1×10^6 cells/ml) were treated with BFA (25 μg/ml) for 2 hr at 37° C. before treatment with mAb 216. Control samples with equivalent amounts of DMSO were set in parallel. Cells were then exposed to 25 μg of mAb 216 or control Ab and analyzed by flow cytometry.
The in vitro cytotoxicity of mAb 216 to Nalm-6 cells was evaluated using PI staining and viability assessment (percent live cells) as a function of the amount of mAb 216 present. The amount of mAb 216 needed to achieve 50% and 80% viability in Nalm-6 cells with and without a crosslinking agent (a secondary mAb, e.g., anti-human lambda) is shown in Table 1, expressed in nanograms antibody required to achieve the indicated level of cytotoxicity, as determined by PI entry into cells.

Another assay concerns Nalm 6. As to the kind of experiment: In vitro cytotoxicity of mAb216 in combination with chemotherapeutic agents, Nalm 6. To be noted: for Live cells: Nalm 6, 48 h. As for the experimental part: (§1) Three cell lines which have been derived from ALL blasts of different genotype and phenotype, Nalm 6, REH, and SUPB15, were incubated with mAb 216 alone or in combination with vincristine (VCR), for 48 hours at 37° C.
(§2) In vitro cytotoxicity of mAb216 in combination with single chemotherapeutic agents was tested. Three cell lines which have been derived from ALL blasts of different genotype and phenotype, Nalm 6, REH, and SUPB15, were incubated with mAb 216 alone or in combination with vincristine (VCR), daunorubicin (DNR), or L-asparaginase (ASPR).

A further assay concerns SUP B15. As to the kind of experiment: In vitro cytotoxicity of mAb216 in combination with chemotherapeutic agents, SUP B15. To be noted: SUP B15, 48 h. As for the experimental part: as §1, §2
The next assay concerns REH. In words: In vitro cytotoxicity of mAb216 in combination with chemotherapeutic agents, REH. The note with it: 48 h. As for the experimental part:
as §1, §2

Several values for one entry are separate records, joined by “and”; a condition that tells them apart may be missing. Identical values can stand only once.

In the case of `C[C@H]1CCC/C=C/[C@@H]2C[C@H](O)C[C@H]2[C@H](O)/C=C/C(=O)O1` [BFA, Brefeldin A], the viability of cells entry in the assay with Nalm-6 cells (BFA 25 μg/ml 2 hr at 37° C, then control antibodies) is “no effect on the viability”. For the molecule `COc1cccc2c1C(=O)c1c(O)c3c(c(O)c1C2=O)C[C@@](O)(C(C)=O)C[C@@H]3O[C@H]1C[C@H](N)[C@H](O)[C@H](C)O1` [DNR, Daunorubicin], the Live cells with Nalm 6 (DNR 5 ng/ml) was 4.3 × 10^5. Further, the “Live cells × 10^5” value with SUP B15 (DNR 4 ng/ml) is 0.44 × 10^5. Turning to `CC[C@]1(O)C[C@H]2CN(CCc3c([nH]c4ccccc34)[C@@](C(=O)OC)(c3cc4c(cc3OC)N(C=O)[C@H]3[C@@](O)(C(=O)OC)[C@H](OC(C)=O)[C@]5(CC)C=CCN6CC[C@]43[C@@H]65)C2)C1` [VCR, Vincristine], the Live cells is reported as 13 × 10^5 in the assay with Nalm 6 (VCR 0.2 ng/ml) and 5 × 10^5 with Nalm 6 (VCR 2 ng/ml). Moreover, in the assay on Nalm 6 (vincristine 0.2 ng/ml, 48 hours at 37° C), the “cell death due to treatment with vincristine alone” value is “no cell death occurred”. The live cell count with REH (VCR 2 ng/ml) is 4.2 × 10^5 and 7.7 × 10^5. Further, the “Live cells × 10^5” value in the assay on SUP B15 (VCR 2 ng/ml) was 2.8 × 10^5. Take `C/C1=C\[C@H](C)C[C@H](C)OC(=O)C[C@H](c2ccc(O)cc2)NC(=O)[C@@H](Cc2c(Br)[nH]c3ccccc23)N(C)C(=O)[C@H](C)NC(=O)[C@@H](C)C1` [jasplakinolide]: the “viability (percent viable cells)” value in the assay with Nalm-6 cells (then control antibodies) is reported as “did not show a decrease in viability”. On to Ac-DEVD-CHO, for which the cell viability entry in the assay with Nalm-6 cells is “did not alter cell viability”. Ac-IETD-aldehyde: the cell viability entry in the assay on Nalm-6 cells is “did not alter cell viability”. On to cytochalasin, for which the “viability (percent viable cells)” value in the assay on Nalm-6 cells (then control antibodies) was “did not show a decrease in viability”.

B1: Asparaginase (protein, UniProt P00805 23-348, looked up)
L-asparaginase 2: LPNITILATGGTIAGGGDSATKSNYTVGKVGVENLVNAVPQLKDIANVKGEQVVNIGSQDMNDNVWLTLAKKINTDCDKTDGFVITHGTDTMEETAYFLDLTVKCDKPVVMVGAMRPSTSMSADGPFNLYNAVVTAADKASANRGVLVVMNDTVLDGRDVTKTNTTDVATFKSVNYGPLGYIHNGKIDYQRTPARKHTSDTPFDVSKLNELPKVGIVYNYANASDLPAKALVDAGYDGIVSAGVGNGNLYKSVFDTLATAAKTGTAVVRSSRVPTGATTQDAEVDDAKYGFVASGTLNPQKARVLLQLALTQTKDPQQIQQIFNQY
notes: L-asparaginase, chemotherapeutic enzyme
On to B1, for which the Live cells in the assay on Nalm 6 (ASPR 0.8 U/ml) is listed as 9.2 × 10^5. Also, the live cell count with REH (ASPR 0.8 U/ml) is listed as 6.2 × 10^5. In addition, the “Live cells × 10^5” value with SUP B15 (ASPR 0.8 U/ml) is 3 × 10^5.

The values are drawn from patent publication US8377435B2, “Antibody induced cell membrane wounding” (The Board of Trustees of the Leland Stanford Junior …, priority 2004, dated 2013).
